# ChEMBL document CHEMBL1136660, “Novel 5-cyclopropyl-1,4-benzodiazepin-2-ones as potent and selective I(Ks)-blocking class III antiarrhythmic agents” (Bioorg Med Chem Lett, 2003)
# Experiments:
# Cavia porcellus [1] = species on record: Cavia porcellus; assay: Inhibitory concentration against IKs current was measured in isolated guinea pig myocytes during a 1 s voltage clamp step […]; format: functional
# [2] = Percent metabolized in an in vitro human liver microsomal incubation assay after 60 min; format: ADME, Microsome; conditions: liver microsomes, read-out: Metabolism
# Cavia porcellus [3] = species on record: Cavia porcellus; assay: Inhibitory concentration against IKr current was measured in isolated guinea pig myocytes during a 0.5 s voltage clamp step from -50 to -10 mV; format: functional
# Canis familiaris [4] = assay: Ventricular relative Refractory period (msec) of compound was measured in chloralose anesthetized dogs (for its Class III activity in vivo) at dose of 0.001 mg/kg (iv); format: functional, Canis lupus familiaris, Heart
# Canis familiaris [5] = assay: Ventricular relative Refractory period (msec) of compound was measured in chloralose anesthetized dogs (for its Class III activity in vivo) at dose of 0.1 mg/kg (iv); format: functional, Canis lupus familiaris, Heart
# Canis familiaris [6] = assay: QTc interval of compound was measured in chloralose anesthetized dogs(for its Class III activity in vivo) at dose of 0.001 mg/kg (iv); units are msec/square root of sec; format: functional, Canis lupus familiaris
# Canis familiaris [7] = assay: QTc interval of compound was measured in chloralose anesthetized dogs(for its Class III activity in vivo) at dose of 0.1 mg/kg (iv); units are msec/square root of sec; format: functional, Canis lupus familiaris
# Canis familiaris [8] = assay: Ventricular relative Refractory period (msec) of compound was measured in chloralose anesthetized dogs (for its Class III activity in vivo) at dose of 0.01 mg/kg (iv); format: functional, Canis lupus familiaris, Heart
# Canis familiaris [9] = assay: QTc interval of compound was measured in chloralose anesthetized dogs(for its Class III activity in vivo) at dose of 0.01 mg/kg (iv); units are msec/square root of sec; format: functional, Canis lupus familiaris
SMILES,IC50 (Cavia porcellus [1]),IC50 (Cavia porcellus [3]),other results
CN1C(=O)C(NC(=O)Cc2ccc(C(F)(F)F)cc2C(F)(F)F)N=C(C2CC2)c2ccccc21 (stereo in doubt; 4 (+)),38 nM,,
"O=C(Cc1ccc(C(F)(F)F)cc1C(F)(F)F)NC1N=C(C2CC2)c2ccccc2N(CC(F)(F)F)C1=O (single isomer, unassigned; (+))",,> 1000 nM,IC50 (Cavia porcellus [1]; Cavia porcellus): 1.5 nM; metabolised at 1 h [2]: ~15%
"CC[C@@H](C)N1C(=O)C(NC(=O)Cc2ccc(C(F)(F)F)cc2C(F)(F)F)N=C(C2CC2)c2ccccc21 (single isomer, unassigned; (+))",50 nM,> 1000 nM,
"CN1C(=O)C(NC(=O)Cc2ccc(C(F)(F)F)cc2C(F)(F)F)N=C(C2CC2)c2ccccc21 (single isomer, unassigned; (-))",280 nM,> 1000 nM,
"CCCN1C(=O)C(NC(=O)Cc2ccc(C(F)(F)F)cc2C(F)(F)F)N=C(C2CC2)c2ccccc21 (single isomer, unassigned; (+))",165 nM,> 1000 nM,
CC[C@@H](C)N1C(=O)C(NC(=O)Cc2ccc(C(F)(F)F)cc2C(F)(F)F)N=C(c2ccccc2)c2ccccc21 (stereo in doubt; 15 (-)),44 nM,> 1000 nM,
"CC[C@H](C)N1C(=O)C(NC(=O)Cc2ccc(C(F)(F)F)cc2C(F)(F)F)N=C(C2CC2)c2ccccc21 (single isomer, unassigned; (-))",0.4 nM,> 1000 nM,
O=C(Cc1ccc(C(F)(F)F)cc1C(F)(F)F)N[C@@H]1N=C(c2ccccc2)c2ccccc2N(CC(F)(F)F)C1=O [L-768673],,6000 nM,IC50 (Cavia porcellus [1]; Cavia porcellus): 6 nM
"CC[C@H](C)N1C(=O)C(NC(=O)Cc2ccc(C(F)(F)F)cc2C(F)(F)F)N=C(C2CC2)c2ccccc21 (single isomer, unassigned; (+))",180 nM,,
"CC[C@@H](C)N1C(=O)C(NC(=O)Cc2ccc(C(F)(F)F)cc2C(F)(F)F)N=C(c2ccccc2)c2ccccc21 (single isomer, unassigned; (+))",3.7 nM,,
CC(C)C1=NC(NC(=O)Cc2ccc(C(F)(F)F)cc2C(F)(F)F)C(=O)N(CC(F)(F)F)c2ccccc21 (configuration not stated),,> 1000 nM,IC50 (Cavia porcellus [1]; Cavia porcellus): 6 nM; metabolised at 1 h [2]: 70%
"CCCN1C(=O)C(NC(=O)Cc2ccc(C(F)(F)F)cc2C(F)(F)F)N=C(C2CC2)c2ccccc21 (single isomer, unassigned; (-))",1.2 nM,,
CCN1C(=O)C(NC(=O)Cc2ccc(C(F)(F)F)cc2C(F)(F)F)N=C(C2CC2)c2ccccc21 (stereo in doubt; 6 (+)),200 nM,> 1000 nM,
"CC[C@@H](C)N1C(=O)C(NC(=O)Cc2ccc(C(F)(F)F)cc2C(F)(F)F)N=C(C2CC2)c2ccccc21 (single isomer, unassigned; (-))",0.08 nM,,Ventricular relative refractory period (Canis familiaris [4]): 176 ms; Ventricular relative refractory period (Canis familiaris [5]): 198 ms; QTc Interval (Canis familiaris [6]): 384 ms s-1; QTc Interval (Canis familiaris [7]): 454 ms s-1; Ventricular relative refractory period (Canis familiaris [8]): 180 ms; QTc Interval (Canis familiaris [9]): 392 ms s-1
"CCN1C(=O)C(NC(=O)Cc2ccc(C(F)(F)F)cc2C(F)(F)F)N=C(C2CC2)c2ccccc21 (single isomer, unassigned; (-))",4 nM,,
